Reference: patent publication US9995734B2, “Human T cell line assay for evaluating the immunologic identity of glatiramer acetate preparations” (Mylan Inc., priority 2013, dated 2018)

Test system: Donor 3 COP T-Cell Lines
Test: ATP proliferation assay (CellTiter Glo), Donor 3 COP T-cell lines, incl. reactivity to non-canonical GA peptides
Format: cell-based, human
Details: for Reactivity (proliferation), Mean: Day 54 of culture

glatiramer acetate [GMA]
Mean, ATP proliferation assay (T-cell line 165-D2C, 3 μg/mL, Day 39): 7503 | Mean, ATP proliferation assay (T-cell line 165-D2C, 10 μg/mL, Day 39): 13253 | Reactivity (proliferation), Mean (T-cell line 165-D3C, 1 μg/mL antigen, No Antigen 8319): 24131 RLU | Mean, ATP proliferation assay (T-cell line 165-D3C, 1 μg/mL, Day 46, after 3 days): 61535 RLU | Reactivity (proliferation), Mean (T-cell line 165-D3C, 3 μg/mL antigen, No Antigen 8319): 58814 RLU | Mean, ATP proliferation assay (T-cell line 165-D3C, 3 μg/mL, Day 46, after 3 days): 80112 RLU | Reactivity (proliferation), Mean (T-cell line 165-D3C, 10 μg/mL antigen, No Antigen 8319): 57024 RLU | Mean, ATP proliferation assay (T-cell line 165-D3C, 10 μg/mL, Day 46, after 3 days): 107772 RLU | Reactivity (proliferation), Mean (T-cell line 165-D3C, 100 μg/mL antigen, No Antigen 8319): 14205 RLU | Mean, ATP proliferation assay (T-cell line 165-D3C, Day 32, 10 μg/mL): 3436 RLU | Reactivity (proliferation), Mean (T-cell line 165-D11C, 1 μg/mL antigen, No Antigen 4571): 3636 RLU | Mean, ATP proliferation assay (T-cell line 165-D11C, 1 μg/mL, Day 46, after 3 days): 15655 RLU | Reactivity (proliferation), Mean (T-cell line 165-D11C, 3 μg/mL antigen, No Antigen 4571): 6578 RLU | Mean, ATP proliferation assay (T-cell line 165-D11C, 3 μg/mL, Day 46, after 3 days): 17777 RLU | Reactivity (proliferation), Mean (T-cell line 165-D11C, 10 μg/mL antigen, No Antigen 4571): 16338 RLU | Mean, ATP proliferation assay (T-cell line 165-D11C, 10 μg/mL, Day 46, after 3 days): 56609 RLU | Reactivity (proliferation), Mean (T-cell line 165-D11C, 100 μg/mL antigen, No Antigen 4571): 14560 RLU | Mean, ATP proliferation assay (T-cell line 165-D11C, Day 32, 10 μg/mL): 416 RLU | Reactivity (proliferation), Mean (T-cell line 165-E3C, 1 μg/mL antigen, No Antigen 2797): 2954 RLU | Mean, ATP proliferation assay (T-cell line 165-E3C, 1 μg/mL, Day 46, after 3 days): 10662 RLU | Reactivity (proliferation), Mean (T-cell line 165-E3C, 3 μg/mL antigen, No Antigen 2797): 17065 RLU | Mean, ATP proliferation assay (T-cell line 165-E3C, 3 μg/mL, Day 46, after 3 days): 35044 RLU | Reactivity (proliferation), Mean (T-cell line 165-E3C, 10 μg/mL antigen, No Antigen 2797): 37602 RLU | Mean, ATP proliferation assay (T-cell line 165-E3C, 10 μg/mL, Day 46, after 3 days): 68577 RLU | Reactivity (proliferation), Mean (T-cell line 165-E3C, 100 μg/mL antigen, No Antigen 2797): 23437 RLU | Mean, ATP proliferation assay (T-cell line 165-E3C, Day 32, 10 μg/mL): 3723 RLU | Reactivity (proliferation), Mean (T-cell line 165-F3C, 1 μg/mL antigen, No Antigen 3150): 9423 RLU | Proliferation (luminescent ATP assay), Mean (T-cell line 165-F3C, 1 μg/mL antigen, Day 77 of culture, 0 μg/mL 1563): 7277 | Mean, ATP proliferation assay (T-cell line 165-F3C, 1 μg/mL, Day 46, after 3 days): 45592 RLU | Reactivity (proliferation), Mean (T-cell line 165-F3C, 3 μg/mL antigen, No Antigen 3150): 37555 RLU | Proliferation (luminescent ATP assay), Mean (T-cell line 165-F3C, 3 μg/mL antigen, Day 77 of culture, 0 μg/mL 1563): 50400 | Mean, ATP proliferation assay (T-cell line 165-F3C, 3 μg/mL, Day 46, after 3 days): 101328 RLU | Reactivity (proliferation), Mean (T-cell line 165-F3C, 10 μg/mL antigen, No Antigen 3150): 44621 RLU | Proliferation (luminescent ATP assay), Mean (T-cell line 165-F3C, 10 μg/mL antigen, Day 77 of culture, 0 μg/mL 1563): 70563 | Mean, ATP proliferation assay (T-cell line 165-F3C, 10 μg/mL, Day 46, after 3 days): 84268 RLU | Reactivity (proliferation), Mean (T-cell line 165-F3C, 100 μg/mL antigen, No Antigen 3150): 12391 RLU | Mean, ATP proliferation assay (T-cell line 165-F3C, Day 32, 10 μg/mL): 1257 RLU | Reactivity (proliferation), Mean (T-cell line 165-F6C, 1 μg/mL antigen, No Antigen 2189): 15671 RLU | Mean, ATP proliferation assay (T-cell line 165-F6C, 1 μg/mL, Day 46, after 3 days): 18511 RLU | Proliferation (luminescent ATP assay), Mean (T-cell line 165-F6C, 1.25 μg/mL antigen, Day 76 of culture, No Antigen value 517): 629 | Proliferation (luminescent ATP assay), Mean (T-cell line 165-F6C, 2.5 μg/mL antigen, Day 76 of culture, No Antigen value 517): 3,197 | Reactivity (proliferation), Mean (T-cell line 165-F6C, 3 μg/mL antigen, No Antigen 2189): 40274 RLU | Mean, ATP proliferation assay (T-cell line 165-F6C, 3 μg/mL, Day 46, after 3 days): 43634 RLU | Proliferation (luminescent ATP assay), Mean (T-cell line 165-F6C, 5 μg/mL antigen, Day 76 of culture, No Antigen value 517): 11,867 | Reactivity (proliferation), Mean (T-cell line 165-F6C, 10 μg/mL antigen, No Antigen 2189): 38921 RLU | Proliferation (luminescent ATP assay), Mean (T-cell line 165-F6C, 10 μg/mL antigen, Day 76 of culture, No Antigen value 517): 20,141 | Mean, ATP proliferation assay (T-cell line 165-F6C, 10 μg/mL, Day 46, after 3 days): 34321 RLU | Reactivity (proliferation), Mean (T-cell line 165-F6C, 100 μg/mL antigen, No Antigen 2189): 3690 RLU | Mean, ATP proliferation assay (T-cell line 165-F6C, Day 32, 10 μg/mL): 1489 RLU | response in proliferation assay (all seven Donor 3 COP T-cell lines tested, Day 54): responded well | reactivity in confirmatory ATP proliferation assay (six Donor 3 COP lines, Day 32, 10 μg/mL (Table 23)): showed reactivity
